Experimental data taken from patent US20260028365A1 (BIOGEN MA INC., priority 2022, published 2026).
Read-outs that look alike come from different tables or passages of the source.

Experiments:
[1] = target: JH2 domain of human Tyk2 (Homo sapiens (Human), UniProt P29597); test: JH2 Biochemical Assay (TR-FRET probe displacement); assay type: binding
[2] = target: Tyk2 (Homo sapiens (Human), UniProt P29597); test: pSTAT4 Cell Assay (MSD, NK92 cells); assay type: cell-based
[3] = JH2 domain of human Tyk2, TR-FRET probe displacement
[4] = TR-FRET probe displacement, JH2 domain
[5] = TR-FRET probe displacement, JH2 domain of human Tyk2

JH2 domain of human Tyk2, sequence (P29597 575-876): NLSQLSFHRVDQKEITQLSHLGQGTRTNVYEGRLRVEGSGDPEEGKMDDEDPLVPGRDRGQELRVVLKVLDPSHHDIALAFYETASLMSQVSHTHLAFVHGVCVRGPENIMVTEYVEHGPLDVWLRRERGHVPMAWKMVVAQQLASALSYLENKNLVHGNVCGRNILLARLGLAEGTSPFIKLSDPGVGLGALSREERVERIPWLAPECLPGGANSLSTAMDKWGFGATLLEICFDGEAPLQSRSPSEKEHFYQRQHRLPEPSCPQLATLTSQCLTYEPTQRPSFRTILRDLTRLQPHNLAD
Tyk2, sequence (P29597 whole entry, the tested form may be a part): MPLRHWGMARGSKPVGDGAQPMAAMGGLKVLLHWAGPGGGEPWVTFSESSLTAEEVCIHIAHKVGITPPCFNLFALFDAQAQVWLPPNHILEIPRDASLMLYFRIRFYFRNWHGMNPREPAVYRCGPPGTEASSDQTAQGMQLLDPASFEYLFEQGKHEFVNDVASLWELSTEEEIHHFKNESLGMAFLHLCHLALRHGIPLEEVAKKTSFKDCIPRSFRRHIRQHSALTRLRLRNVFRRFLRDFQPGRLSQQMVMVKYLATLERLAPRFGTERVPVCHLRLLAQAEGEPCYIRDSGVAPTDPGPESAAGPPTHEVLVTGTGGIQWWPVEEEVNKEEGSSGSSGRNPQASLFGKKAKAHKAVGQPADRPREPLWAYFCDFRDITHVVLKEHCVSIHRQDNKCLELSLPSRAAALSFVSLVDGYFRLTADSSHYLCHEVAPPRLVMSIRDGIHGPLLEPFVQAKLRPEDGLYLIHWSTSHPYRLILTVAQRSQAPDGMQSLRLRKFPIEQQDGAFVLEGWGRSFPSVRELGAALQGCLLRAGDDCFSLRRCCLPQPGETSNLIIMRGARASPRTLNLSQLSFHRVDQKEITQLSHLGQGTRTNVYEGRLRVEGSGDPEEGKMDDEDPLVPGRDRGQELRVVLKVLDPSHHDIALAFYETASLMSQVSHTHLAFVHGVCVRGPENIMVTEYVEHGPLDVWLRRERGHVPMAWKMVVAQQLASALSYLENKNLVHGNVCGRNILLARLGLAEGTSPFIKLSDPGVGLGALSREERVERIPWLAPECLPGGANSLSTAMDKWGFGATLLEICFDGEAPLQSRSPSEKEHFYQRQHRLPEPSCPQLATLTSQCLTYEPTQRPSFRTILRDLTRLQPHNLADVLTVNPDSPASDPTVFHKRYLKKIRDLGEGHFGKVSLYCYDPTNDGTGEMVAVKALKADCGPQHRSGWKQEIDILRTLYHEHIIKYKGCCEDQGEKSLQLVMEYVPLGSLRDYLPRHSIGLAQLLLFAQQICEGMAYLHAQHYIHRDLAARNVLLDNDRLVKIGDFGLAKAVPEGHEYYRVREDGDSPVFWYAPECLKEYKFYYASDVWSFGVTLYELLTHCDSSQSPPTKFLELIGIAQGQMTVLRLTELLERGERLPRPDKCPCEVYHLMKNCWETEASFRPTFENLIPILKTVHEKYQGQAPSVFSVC

Row | Structure (SMILES) | IC50 [1, 3] | IC50 ([2]; MSD) | IC50 [1, 4] | IC50 [2] | IC50 [1, 5]
1 | CC(=O)Nc1cc(Nc2cc(C)nc(C(C)(F)F)n2)c(-c2cnc(C)o2)cn1 [Example 600, N-(4-((2-(1,1-difluoroethyl)-6-methylpyrimidin-4-yl)amino)-5-(2-methyloxazol-5-yl)pyridin-2-yl)acetamide] | 10 to 100 nM | 100 to 1000 nM | – | – | –
2 | CCc1cc(Nc2cc(NC(C)=O)ncc2-c2cnc(C3COCCO3)cn2)nc(C(C)(F)F)n1 (stereo not drawn) [Example 898, N-(5-(5-(1,4-dioxan-2-yl)pyrazin-2-yl)-4-((2-(1,1-difluoroethyl)-6-ethylpyrimidin-4-yl)amino)pyridin-2-yl)acetamide] | – | – | ≤ 10 nM | ≤ 10 nM | –
3 | CC(=O)Nc1cc(Nc2cc(C)nc(C(C)(F)F)n2)c(-c2cccc(C#N)n2)cn1 [Example 630, N-(6-cyanO4′-((2-(1,1-difluoroethyl)-6-methylpyrimidin-4-yl)amino)-[2,3′-bipyridin]-6′-yl)acetamide] | ≤ 10 nM | ≤ 10 nM | – | – | –
4 | COc1nc(C)cc(-c2cnc(NC(C)=O)cc2Nc2ccnc(C(C)(F)F)n2)n1 [Example 164, N-(4-((2-(1,1-difluoroethyl)pyrimidin-4-yl)amino)-5-(2-methoxy-6-methylpyrimidin-4-yl)pyridin-2-yl)acetamide] | – | 10 to 100 nM | – | – | ≤ 10 nM
5 | COc1cc(-c2cnc(NC(C)=O)cc2Nc2cccc(C(C)(F)F)n2)ncn1 [Example 162, N-(4-((6-(1,1-difluoroethyl)pyridin-2-yl)amino)-5-(6-methoxypyrimidin-4-yl)pyridin-2-yl)acetamide] | – | ≤ 10 nM | – | – | ≤ 10 nM
6 | CC(=O)Nc1cc(Nc2ccnc(C(C)(F)F)n2)c(-c2cnc(C#N)cn2)cn1 [Example 850, N-(5-(5-cyanopyrazin-2-yl)-4-((2-(1,1-difluoroethyl)pyrimidin-4-yl)amino)pyridin-2-yl)acetamide] | – | – | ≤ 10 nM | 100 to 1000 nM | –
7 | CC(=O)Nc1cc(Nc2ccnc(C(C)(F)F)n2)c(-c2ccc(CN3C[C@H]4C[C@@H]3CO4)cn2)cn1 (racemic) [Example 884, rac-N-(5-(((1R,4R)-2-oxa-5-azabicyclo[2.2.1]heptan-5-yl)methyl)-4′-((2-(1,1-difluoroethyl)pyrimidin-4-yl)amino)-[2,3′-bipyridin]-6′-yl)acetamide] | – | – | ≤ 10 nM | ≤ 10 nM | –
8 | CCc1cc(Nc2cc(NC(=O)OC)ncc2OCCN(C)C)nc(C(C)(F)F)n1 [Example 92, methyl (4-((2-(1,1-difluoroethyl)-6-ethylpyrimidin-4-yl)amino)-5-(2-(dimethylamino)ethoxy)pyridin-2-yl)carbamate] | – | 10 to 100 nM | – | – | ≤ 10 nM
9 | CC(=O)Nc1cc(Nc2cc(C)nc(C(C)(F)F)n2)c(-c2ccn(C(C)C)n2)cn1 [Example 603, N-(4-((2-(1,1-difluoroethyl)-6-methylpyrimidin-4-yl)amino)-5-(1-isopropyl-1H-pyrazol-3-yl)pyridin-2-yl)acetamide] | ≤ 10 nM | ≤ 10 nM | – | – | –
10 | CC(=O)Nc1cc(Nc2ccnc(C(C)(F)F)n2)c(-c2cnc(N3CC4(CCOC4)C3)cn2)cn1 [Example 872, N-(5-(5-(6-oxa-2-azaspiro[3.4]octan-2-yl)pyrazin-2-yl)-4-((2-(1,1-difluoroethyl)pyrimidin-4-yl)amino)pyridin-2-yl)acetamide] | – | – | ≤ 10 nM | 10 to 100 nM | –
11 | CC(=O)Nc1cc(Nc2cc(C)nc(C34COC(C3)C4)n2)c(-c2ccc3c(n2)OCC(C)(C)O3)cn1 [Example 563, N-(4-((2-(2-oxabicyclo[2.1.1]hexan-4-yl)-6-methylpyrimidin-4-yl)amino)-5-(2,2-dimethyl-2,3-dihydrO[1,4]dioxino[2,3-b]pyridin-6-yl)pyridin-2-yl)acetamide] | ≤ 10 nM | 10 to 100 nM | – | – | –
12 | CC(=O)Nc1cc(Nc2cccc(C(C)(F)F)n2)c(-c2ccc(C#N)cn2)cn1 [Example 525, N-(5-cyanO4′-((6-(1,1-difluoroethyl)pyridin-2-yl)amino)-[2,3′-bipyridin]-6′-yl)acetamide] | ≤ 10 nM | 10 to 100 nM | – | – | –
13 | COCc1nccc(-c2cnc(NC(C)=O)cc2Nc2ccnc(C(C)(F)F)n2)n1 [Example 696, N-(4-((2-(1,1-difluoroethyl)pyrimidin-4-yl)amino)-5-(2-(methoxymethyl)pyrimidin-4-yl)pyridin-2-yl)acetamide] | ≤ 10 nM | ≤ 10 nM | – | – | –
14 | CC(=O)Nc1cc(Nc2cc(C)nc(C(C)(F)F)n2)c(-c2csc(C(C)C)n2)cn1 [Example 612, N-(4-((2-(1,1-difluoroethyl)-6-methylpyrimidin-4-yl)amino)-5-(2-isopropylthiazol-4-yl)pyridin-2-yl)acetamide] | ≤ 10 nM | ≤ 10 nM | – | – | –
15 | CC(=O)Nc1cc(Nc2cccc(C(C)(F)F)n2)c(-c2ccc(=O)n(C)n2)cn1 [Example 158, N-(4-((6-(1,1-difluoroethyl)pyridin-2-yl)amino)-5-(1-methyl-6-oxo-1,6-dihydropyridazin-3-yl)pyridin-2-yl)acetamide] | – | ≤ 10 nM | – | – | ≤ 10 nM
16 | CC(=O)Nc1cc(Nc2cc(C)nc(C(C)(F)F)n2)c(OC[C@@H]2CCCO2)cn1 (single isomer, unassigned) [Example 293, (S)-N-(4-((2-(1,1-difluoroethyl)-6-methylpyrimidin-4-yl)amino)-5-((tetrahydrofuran-2-yl)methoxy)pyridin-2-yl)acetamide or (R)-N-(4-((2-(1,1-difluoroethyl)-6-methylpyrimidin-4-yl)amino)-5-((tetrahydrofuran-2-yl)methoxy)pyridin-2-yl)acetamide] | – | 10 to 100 nM | – | – | ≤ 10 nM
17 | CCc1cc(Nc2cc(NC(C)=O)ncc2-c2cnc(CN3CCCC3)cn2)nc(C(C)(F)F)n1 [Example 893, N-(4-((2-(1,1-difluoroethyl)-6-ethylpyrimidin-4-yl)amino)-5-(5-(pyrrolidin-1-ylmethyl)pyrazin-2-yl)pyridin-2-yl)acetamide] | – | – | ≤ 10 nM | ≤ 10 nM | –
18 | COc1cncc(Nc2cc(NC(C)=O)ncc2-c2ccc(F)cn2)n1 [Example 586, N-(5-fluorO4′-((6-methoxypyrazin-2-yl)amino)-[2,3′-bipyridin]-6′-yl)acetamide] | ≤ 10 nM | 10 to 100 nM | – | – | –
19 | COC1CCN(c2ccc(-c3cnc(NC(C)=O)cc3Nc3ccnc(C(C)(F)F)n3)nn2)C1 (racemic) [Example 873, rac-(R)-N-(4-((2-(1,1-difluoroethyl)pyrimidin-4-yl)amino)-5-(6-(3-methoxypyrrolidin-1-yl)pyridazin-3-yl)pyridin-2-yl)acetamide] | – | – | ≤ 10 nM | ≤ 10 nM | –
20 | CC(=O)Nc1cc(Nc2cc(C)nc(C(C)(F)F)n2)c(-c2cccc(C3CCCCO3)n2)cn1 (stereo not drawn) [Example 647, N-(4′-((2-(1,1-difluoroethyl)-6-methylpyrimidin-4-yl)amino)-6-(tetrahydro2H-pyran-2-yl)-[2,3′-bipyridin]-6′-yl)acetamide] | ≤ 10 nM | ≤ 10 nM | – | – | –
21 | COc1ccc(-c2cc(Nc3cc(NC(C)=O)ncc3OC)nc(C(C)(F)F)n2)cn1 [Example 392, N-(4-((2-(1,1-difluoroethyl)-6-(6-methoxypyridin-3-yl)pyrimidin-4-yl)amino)-5-methoxypyridin-2-yl)acetamide] | ≤ 10 nM | ≤ 10 nM | – | – | –
22 | CCOc1cnc(NC(C)=O)cc1Nc1cc(O[C@H]2C[C@@H](OC)C2)cc(C(C)(F)F)n1 [Example 15, N-(4-((6-(1,1-difluoroethyl)-4-((1s,3s)-3-methoxycyclobutoxy)pyridin-2-yl)amino)-5-ethoxypyridin-2-yl)acetamide] | – | 10 to 100 nM | – | – | ≤ 10 nM
23 | CCOc1cnc(NC(=O)CCOC)cc1Nc1cc(C)nc(C(C)(F)F)n1 [Example 27, N-(4-((2-(1,1-difluoroethyl)-6-methylpyrimidin-4-yl)amino)-5-ethoxypyridin-2-yl)-3-methoxypropanamide] | – | 100 to 1000 nM | – | – | ≤ 10 nM
24 | CC(=O)Nc1cc(Nc2ccnc(C(C)(F)F)n2)c(-c2cnc(C3CC3)cn2)cn1 [Example 694, N-(5-(5-cyclopropylpyrazin-2-yl)-4-((2-(1,1-difluoroethyl)pyrimidin-4-yl)amino)pyridin-2-yl)acetamide] | ≤ 10 nM | 10 to 100 nM | – | – | –
25 | COCCOc1nccc(Nc2cc(NC(C)=O)ncc2-c2ccn(C)n2)n1 [Example 549, N-(4-((2-(2-methoxyethoxy)pyrimidin-4-yl)amino)-5-(1-methyl-1H-pyrazol-3-yl)pyridin-2-yl)acetamide] | ≤ 10 nM | 100 to 1000 nM | – | – | –
26 | CC(=O)Nc1cc(Nc2cc(C)nc(C(C)(F)F)n2)c(OCc2ccc3c(c2)OCO3)cn1 [Example 484, N-(5-(benzo[d][1,3]dioxol-5-ylmethoxy)-4-((2-(1,1-difluoroethyl)-6-methylpyrimidin-4-yl)amino)pyridin-2-yl)acetamide] | ≤ 10 nM | 10 to 100 nM | – | – | –
27 | CC(=O)Nc1cc(Nc2cc(C)nc(C(C)(F)F)n2)c(OCC2CCC2)cn1 [Example 62, N-(5-(cyclobutylmethoxy)-4-((2-(1,1-difluoroethyl)-6-methylpyrimidin-4-yl)amino)pyridin-2-yl)acetamide] | – | 10 to 100 nM | – | – | ≤ 10 nM
28 | CC(=O)Nc1cc(Nc2cc(C)nc(C(C)(F)F)n2)c(-c2csc(N(C)C)n2)cn1 [Example 271, N-(4-((2-(1,1-difluoroethyl)-6-methylpyrimidin-4-yl)amino)-5-(2-(dimethylamino)thiazol-4-yl)pyridin-2-yl)acetamide] | – | ≤ 10 nM | – | – | ≤ 10 nM
29 | COCc1ccc(-c2cnc(NC(C)=O)cc2Nc2cncc(OC(F)F)n2)nc1 [Example 588, N-(4′-((6-(difluoromethoxy)pyrazin-2-yl)amino)-5-(methoxymethyl)-[2,3′-bipyridin]-6′-yl)acetamide] | ≤ 10 nM | 10 to 100 nM | – | – | –
30 | CCOc1cnc(NC(C)=O)cc1Nc1cc(OC2CC3(COC3)C2)nc(C(C)(F)F)n1 [Example 297, N-(4-((6-((2-oxaspiro[3.3]heptan-6-yl)oxy)-2-(1,1-difluoroethyl)pyrimidin-4-yl)amino)-5-ethoxypyridin-2-yl)acetamide] | – | ≤ 10 nM | – | – | ≤ 10 nM
